Data as given in ChEMBL document CHEMBL1201862, “PubChem BioAssay data set” (2004).
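Compound exposure: 48 hours, 5 concentrations, 96-well plates. GI50 = concentration required for 50% inhibition of growth.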 Activity calls are given as the source filed them. No stated cut-off is given here; in the data, active = GI50 up to about 1.1 µM and inactive = higher.

Assays:
Assay in all cases: NCI tumour cell line growth inhibition, 48 h
LXFL 529 = tested on: LXFL 529
RXF 631 = tested on: RXF 631
HOP-18 = tested on: HOP-18
SNB-78 = tested on: SNB-78

Measured: GI50

N#CC(C#N)=Cc1ccc(Oc2ccccc2)cc1
inactive: LXFL 529 25.8 µM | RXF 631 36.3 µM | HOP-18 33.4 µM | SNB-78 28.2 µM
